Measurements: patent publication US10772326B2 (priority 2014, dated 2020)
Read-outs that look alike come from different tables or passages of the source.

Tests used:
[1] = tested on: E. coli Stratagene strain “Solopack”; test: Disc test of essential oils on E. coli growth on LB agar; format: cell-based; settings: 20 μl undiluted on 6 mm disc, 24 hrs
Method: The essential oils cinnamadehyde (Aldrich, W228605; ≥98% purity), carvacrol (Aldrich, W224502; ≥98% purity) and geraniol (Aldrich, 163333; 98% purity) were purchased Sigma-Aldrich (St. Louis, Mo.). A single colony of E. coli Stratagene strain “Solopack” was inoculated in 5 ml of Luria Broth (LB) liquid medium with shaking at 37° C. overnight. Two hundred μl of the E. coli overnight cultures were placed on an LB agar plate, and spread evenly with glass beads. The bacterial culture was allowed to absorb into the LB medium. Within 30 min after absorption, 20 μl drops of the three essential oils (cinnamaldehyde, carvacrol or geraniol) were separately placed without dilution on 6 mm discs (Whatman, Cat No. 2017-006; GE healthcare Life Science) and the treated disks were placed on top of the plates with E. coli. The plates were then incubated for 24 hrs. […] Experiments were repeated, with the same results.

[2] = tested on: L. crescens strain BT-1 (Lcr); format: cell-based, Liberibacter crescens; settings: 5 days; for inhibition of the growth of Lcr: 20 μl on 6 mm disc
[3] = tested on: Swingle rootstocks and sweet orange; test: Phytotoxicity of foliar spray or leaf painting on citrus; format: in vivo; settings: spray to run-off or leaf painting
From the text: To test the phytoxicity of cinnamaldehyde or carvacrol in 70% ethanol, and 70% ethanol alone on citrus plants, we applied 1% (w/v) and 10% (w/v) cinnamaldehyde or carvacrol (each dissolved in 70% ethanol) on Swingle rootstocks (˜6 inches to 1 foot tall) by spraying to the point of run-off of the spray and also sweet orange (˜3 foot tall) by painting one or both sides of a portion of the leaf surface. We also applied 70% ethanol as control in these two methods.

[4] = tested on: Swingle rootstocks; test: Phytotoxicity of soil drench on potted citrus; format: in vivo; settings: drench to run-off
From the text: To further test the phytoxicity of cinnamaldehyde or carvacrol in 70% ethanol, and 70% ethanol alone on citrus plants, we applied 1% and 10% cinnamaldehyde or carvacrol (each dissolved in 70% ethanol) on Swingle rootstocks (˜6 inches to 1 foot tall) by adding sufficient liquid to soil of potted citrus to the point of run-off of the drench. We also applied 70% ethanol as control in these two methods.

[5] = tested on: Las; format: in vivo, Candidatus Liberibacter asiaticus; settings: 1% (w/v) in 70% ethanol, foliar spray to run-off; 1-2 weeks later and for several months; positive = Ct ≤ 35
[6] = tested on: Las; settings: spray to run-off
[7] = tested on: Las; settings: 1.5% (w/v) in 100% DMSO
[8] = 1% in 70% ethanol (carvacrol: 8 mg/ml (1%))

Row | Compound | inhibition of the growth of E. coli [1] | relative inhibition of the growth of E. coli (ranking) [1] | inhibition of the growth of Lcr ([2]; 2 mg/ml in 70% ethanol) | phytotoxicity, foliar ([3]; 1% (w/v) in 70% ethanol) | phytotoxicity, soil drench [4, 8] | level down to which inhibitory to Lcr ([2]; two-fold serial dilutions in 70% ethanol, disc test) [mg/mL] | phytotoxicity, foliar ([3]; 10% w/v in 70% ethanol) | phytotoxicity, soil drench ([4]; 10% w/v in 70% ethanol) | Las qPCR tests after treatment [5] | PCR tests for presence of Las ([6]; 0.3% in 50% DMSO) | effect on the trees (defoliation) ([6]; 0.3% in 50% DMSO) | weekly qPCR tests for Las for the next nine months ([6]; 1.5% in 50% DMSO) | effect on the trees (defoliation) ([6]; 1.5% in 50% DMSO, 6-7 days later) | PCR tests for presence of Las in new shoots ([6]; 1.5% in 50% DMSO, about 3 weeks after defoliation) | effect on the trees (defoliation) ([7]; 2 x 20 ml trunk injection, 6-7 days later) | PCR tests for presence of Las in new shoots ([7]; trunk injection) | weekly PCR tests for Las for the next 9 months ([7]; trunk injection) | inhibition of the growth of Lcr ([2]; 2 mg/ml to 0.125 mg/ml in 70% ethanol)
1 | Cc1ccc(C(C)C)cc1O [carvacrol, reference compound] | inhibitory | more inhibitory than cinnamaldehyde | only slight inhibition | highly phytotoxic | highly phytotoxic |  |  |  |  |  |  |  |  |  |  |  |  | 
2 | O=C/C=C/c1ccccc1 [cinnamaldehyde] | inhibitory | more inhibitory than geraniol | surprisingly strong inhibition | not at all phytotoxic | not at all phytotoxic | 1 | moderately phytotoxic | moderately phytotoxic | qPCR positive | remained infected | appeared unaffected | remained completely negative | completely defoliated | completely Las negative | completely defoliated | completely negative | remained completely PCR negative | 
3 | CC(C)=CCC/C(C)=C/CO [geraniol, reference compound] | inhibitory |  |  |  |  |  |  |  |  |  |  |  |  |  |  |  |  | not inhibitory
